Laboratory results published in the supplement of paper PMC10307832.

Experiments:
Experiment in all cases: relative viability (nuclei count vs DMSO), 5 days (fraction); higher = more cells survive
NCI-H1755 = tested on: NCI-H1755
Procedure, shortened: (§1)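 Nuclei were stained with Hoechst during a one-step fixation (final 0.05% Triton X-100, 1% formaldehyde, 1 ug/ml Hoechst) carried out 5 days after dosing, then counted on 4× images. The cells, lung cancer lines in 1536-well plates, had been dosed by pin tool the day after seeding with one drug alone or a fixed anchor-drug dose plus five library-drug doses (not always all listed) in √10 steps. Relative viability is the nuclei count in treated wells divided by that in vehicle wells, and each value is the median of duplicate plates.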

LU99A = tested on: LU99A
Procedure, shortened: as §1

NCI-H1437 = tested on: NCI-H1437
Procedure, shortened: as §1

NCI-H2085 = tested on: NCI-H2085
Procedure, shortened: as §1

NCI-H1666 = tested on: NCI-H1666
Procedure, shortened: as §1

NCI-H1650 = tested on: NCI-H1650
Procedure, shortened: as §1

NCI-H1651 = tested on: NCI-H1651
Procedure, shortened: as §1

COR-L23 = tested on: COR-L23
Procedure, shortened: as §1

NCI-H1792 = tested on: NCI-H1792
Procedure, shortened: as §1

NCI-H1355 = tested on: NCI-H1355
Procedure, shortened: as §1

BEN = tested on: BEN
Procedure, shortened: as §1

HCC-44 = tested on: HCC-44
Procedure, shortened: as §1

NCI-H1563 = tested on: NCI-H1563
Procedure, shortened: as §1

LXF-289 = tested on: LXF-289
Procedure, shortened: as §1

NCI-H1993 = tested on: NCI-H1993
Procedure, shortened: as §1

NCI-H2087 = tested on: NCI-H2087
Procedure, shortened: as §1

NCI-H520 = tested on: NCI-H520
Procedure, shortened: as §1

CAL-12T = tested on: CAL-12T
Procedure, shortened: as §1

PC-14 = tested on: PC-14
Procedure, shortened: as §1

NCI-H460 = tested on: NCI-H460
Procedure, shortened: as §1

SK-MES-1 = tested on: SK-MES-1
Procedure, shortened: as §1

NCI-H2170 = tested on: NCI-H2170
Procedure, shortened: as §1

Structure (SMILES): CN1CCN(CCOc2cc(OC3CCOCC3)c3c(Nc4c(Cl)ccc5c4OCO5)ncnc3c2)CC1 [Saracatinib] + N=C(N)NC(=N)NCCc1ccccc1 [Phenformin] (partner 250 µM)
- relative viability (NCI-H1755; first compound 0.02 µM): 0.665
- relative viability (NCI-H1755; first compound 0.2 µM): 0.484
- relative viability (NCI-H1755; first compound 0.6325 µM): 0.597
- relative viability (NCI-H1755; first compound 2 µM): 0.478
- relative viability (LU99A; first compound 0.02 µM): 0.938
- relative viability (LU99A; first compound 0.2 µM): 0.617
- relative viability (LU99A; first compound 0.6325 µM): 0.879
- relative viability (LU99A; first compound 2 µM): 0.707
- relative viability (NCI-H1437; first compound 0.02 µM): 0.375
- relative viability (NCI-H1437; first compound 0.2 µM): 0.345
- relative viability (NCI-H1437; first compound 0.6325 µM): 0.329
- relative viability (NCI-H1437; first compound 2 µM): 0.27
- relative viability (NCI-H2085; first compound 0.2 µM): 0.694
- relative viability (NCI-H2085; first compound 0.6325 µM): 0.809
- relative viability (NCI-H2085; first compound 2 µM): 0.667
- relative viability (NCI-H1666; first compound 0.02 µM): 0.562
- relative viability (NCI-H1666; first compound 0.2 µM): 0.566
- relative viability (NCI-H1666; first compound 0.6325 µM): 0.642
- relative viability (NCI-H1666; first compound 2 µM): 0.588
- relative viability (NCI-H1650; first compound 0.02 µM): 0.412
- relative viability (NCI-H1650; first compound 0.2 µM): 0.253
- relative viability (NCI-H1650; first compound 0.6325 µM): 0.317
- relative viability (NCI-H1650; first compound 2 µM): 0.295
- relative viability (NCI-H1651; first compound 0.02 µM): 0.414
- relative viability (NCI-H1651; first compound 0.2 µM): 0.258
- relative viability (NCI-H1651; first compound 0.6325 µM): 0.388
- relative viability (NCI-H1651; first compound 2 µM): 0.3
- relative viability (COR-L23; first compound 0.02 µM): 0.466
- relative viability (COR-L23; first compound 0.2 µM): 0.393
- relative viability (COR-L23; first compound 0.6325 µM): 0.481
- relative viability (COR-L23; first compound 2 µM): 0.449
- relative viability (NCI-H1792; first compound 0.02 µM): 0.258
- relative viability (NCI-H1792; first compound 0.2 µM): 0.167
- relative viability (NCI-H1792; first compound 0.6325 µM): 0.241
- relative viability (NCI-H1792; first compound 2 µM): 0.405
- relative viability (NCI-H1355; first compound 0.02 µM): 0.453
- relative viability (NCI-H1355; first compound 0.2 µM): 0.397
- relative viability (NCI-H1355; first compound 0.6325 µM): 0.453
- relative viability (NCI-H1355; first compound 2 µM): 0.407
- relative viability (BEN; first compound 0.02 µM): 0.292
- relative viability (BEN; first compound 0.6325 µM): 0.253
- relative viability (BEN; first compound 2 µM): 0.209
- relative viability (HCC-44; first compound 0.02 µM): 0.316
- relative viability (HCC-44; first compound 0.2 µM): 0.227
- relative viability (HCC-44; first compound 0.6325 µM): 0.333
- relative viability (HCC-44; first compound 2 µM): 0.199
- relative viability (NCI-H1563; first compound 0.02 µM): 0.615
- relative viability (NCI-H1563; first compound 0.2 µM): 0.63
- relative viability (NCI-H1563; first compound 0.6325 µM): 0.603
- relative viability (NCI-H1563; first compound 2 µM): 0.572
- relative viability (LXF-289; first compound 0.02 µM): 0.546
- relative viability (LXF-289; first compound 0.2 µM): 0.486
- relative viability (LXF-289; first compound 0.6325 µM): 0.506
- relative viability (LXF-289; first compound 2 µM): 0.458
- relative viability (NCI-H1993; first compound 0.02 µM): 0.524
- relative viability (NCI-H1993; first compound 0.2 µM): 0.529
- relative viability (NCI-H1993; first compound 0.6325 µM): 0.512
- relative viability (NCI-H1993; first compound 2 µM): 0.555
- relative viability (NCI-H2087; first compound 0.02 µM): 0.484
- relative viability (NCI-H2087; first compound 0.2 µM): 0.39
- relative viability (NCI-H2087; first compound 0.6325 µM): 0.468
- relative viability (NCI-H2087; first compound 2 µM): 0.355
- relative viability (NCI-H520; first compound 0.02 µM): 0.687
- relative viability (NCI-H520; first compound 0.6325 µM): 0.441
- relative viability (NCI-H520; first compound 2 µM): 0.291
- relative viability (CAL-12T; first compound 0.02 µM): 0.608
- relative viability (CAL-12T; first compound 0.2 µM): 0.639
- relative viability (CAL-12T; first compound 0.6325 µM): 0.595
- relative viability (CAL-12T; first compound 2 µM): 0.506
- relative viability (PC-14; first compound 0.02 µM): 0.646
- relative viability (PC-14; first compound 0.2 µM): 0.441
- relative viability (PC-14; first compound 0.6325 µM): 0.256
- relative viability (PC-14; first compound 2 µM): 0.124
- relative viability (NCI-H460; first compound 0.02 µM): 0.534
- relative viability (NCI-H460; first compound 0.2 µM): 0.382
- relative viability (NCI-H460; first compound 0.6325 µM): 0.491
- relative viability (NCI-H460; first compound 2 µM): 0.435
- relative viability (SK-MES-1; first compound 0.02 µM): 0.65
- relative viability (SK-MES-1; first compound 0.2 µM): 0.613
- relative viability (SK-MES-1; first compound 0.6325 µM): 0.613
- relative viability (SK-MES-1; first compound 2 µM): 0.634
- relative viability (NCI-H2170; first compound 0.02 µM): 0.396
- relative viability (NCI-H2170; first compound 0.2 µM): 0.332
- relative viability (NCI-H2170; first compound 0.6325 µM): 0.352
- relative viability (NCI-H2170; first compound 2 µM): 0.295
